Reference: US20230027864A1, “COMPOSITIONS AND METHODS FOR DELIVERY OF AGENTS TO IMMUNE CELLS” (ModernaTX, Inc., priority 2018, published 2023)

system: T cells; assay: LNP association and GFP mRNA expression in T cells of human PBMCs; type: cell-based; settings: ionizable lipid component of the LNP, FIG. 30
Description: In a second series of experiments, additional compounds, were tested in the LNPs for their ability to enhance delivery to T cells. For these experiments, the association of the LNP with cells and the expression of mRNA-encoding protein within the transfected cells was assessed at the cell-by-cell level. Peripheral blood mononuclear cells (PBMCs) from human donors were used. PBMCs were predominately T cells (40-60%), B cells (3-15%), and monocytes (15-35%), but also contained small numbers of other cell types. LNPs were incubated with serum or PBS for 30 minutes and then added to the PBMCs. The LNP concentration was 0.050 mg/ml, the LNP volume was 0.1 ml.
LNPs contained 0.1% Rhodamine-DOPE in addition to the other LNP components to facilitate detection. Thus, the ratios set forth in the tables below include 0.1 for the rhodamine label. For example, 50:10:10:27.9:2:0.1 AL:DSPC:chol:sterol:Cmp 428 indicates 50% amino lipid as the ionizable lipid, 10% DSPC as the phospholipid, 10% cholesterol, 27.9% phytosterol, 2% Compound 428 as the PEG lipid and 0.1% for the rhodamine-DOPE label. To prepare a non-labeled LNP, the same ratios are used except that the 0.1% rhodamine label is omitted and an additional 0.1% of structural lipid (cholesterol or cholesterol/phytosterol blend) is used (e.g., 27.9% becomes 28%).
Cells were sorted by flow cytometry into subsets based on expression of certain markers: CD3 (T cells), CD20 (B cells), and CD3-, CD20-, CD14+(Monocytes).
mRNA encoding GFP was used as a model agent to effect expression of an intracellular protein.
When conducting flow cytometry, the Y-axis was signal from the rhodamine tag on the LNP and the X-axis was the GFP signal showing expression of the protein.
The “associated” population is any rhodamine+ and/or GFP+ cell and the percent of these cells was calculated by dividing by the total number of cells. The “expression” population is any GFP+ cell and the percent of these cells was calculated by dividing by the total number of cells. The percent of associated cells expressing was obtained by dividing the % expressing cells by the % associated cells.

**Q.** For `CCCCCCCCC(CCC)OC(=O)CCCCCCCN(CCCCCCCC(=O)OC(CCCCCCCC)CCCCCCCC)CCCNS(C)(=O)=O` (stereo not drawn) [Compound I-330], which “immune cell delivery potentiating ability in T cells, amino lipid panel” value is on record?
**A.** exhibited immune cell delivery potentiating ability in T cells

**Q.** How did the “immune cell delivery potentiating ability in T cells, amino lipid panel” value turn out when `CCCCCCCCC(CCC)OC(=O)CCCCCCCN(CCCO)CCCCCCCC(=O)OC(CCCCCCCC)CCCCCCCC` (stereo not drawn) [Compound I-328] was run?
**A.** exhibited immune cell delivery potentiating ability in T cells

**Q.** How did the “immune cell delivery potentiating ability in T cells, amino lipid panel” value turn out when `CCCCCCCCCOC(=O)CCCCCCCN(CCCCCCCC(=O)OC(CCCCCCCC)CCCCCCCC)CCCNc1c(NCC)c(=O)c1=O` [Compound I-292] was run?
**A.** exhibited immune cell delivery potentiating ability in T cells

**Q.** How did the “immune cell delivery potentiating ability in T cells, amino lipid panel” value turn out when `CCCCCCCCC(C)OC(=O)CCCCCCCN(CCO)CCCCCCCC(=O)OC(CCCCCCCC)CCCCCCCC` (stereo not drawn) [Compound I-48] was run?
**A.** exhibited immune cell delivery potentiating ability in T cells

**Q.** Which “immune cell delivery potentiating ability in T cells, amino lipid panel” value does the source give for `CCCCCCCCC(CCC)OC(=O)CCCCCCCN(CCO)CCCCCCCC(=O)OC(CCCCCCCC)CCCCCCCC` (stereo not drawn) [Compound I-50] here?
**A.** exhibited immune cell delivery potentiating ability in T cells

same assay, conditions: phospholipid component of the LNP, FIG. 32

**Q.** How did the “immune cell delivery potentiating ability in T cells, helper lipid panel” value turn out when `CCCCCCCCCCCCCCCCCC(=O)OC[C@H](COP(=O)([O-])OCC[N+](C)(C)C)OC(=O)CCCCCCCCCCCCCCCCC` [DSPC, 1,2-distearoyl-sn-glycero-3-phosphocholine, reference compound] was run?
**A.** exhibited immune cell delivery potentiating ability in T cells

system: T cells; assay: Additional LNPs: T cell transfection in vitro, mOX40L mRNA, labeled LNPs; type: cell-based, human; settings: ionizable lipid component, FIG. 43
Description: In this Example, additional LNPs comprising various lipid components and at different ratios were made and tested for their ability to transfect T cells in vitro. Transfection was performed as in Example 5 using LNPs encapsulating an mRNA encoding mouse OX40L. LNPs were labeled and the results were determined for the mean % cells with LNPs associated, the mean % cells expressing mOX40L and the % of LNP-associated cells expressing mOX40L, as described hereinbefore.

**Q.** `CCCCCCCCC(CC)OC(=O)CCCCCN(CCCCCCCC(=O)OC(CCCCCCCC)CCCCCCCC)CCCNc1c(NC)c(=O)c1=O` (stereo not drawn) [Compound I-350] was tested. Which “immune cell delivery potentiating ability in T cells, amino lipid panel” value did it give?
**A.** exhibited immune cell delivery potentiating ability in T cells

**Q.** Which “immune cell delivery potentiating ability in T cells, amino lipid panel” value does the source give for `CCCCCCCCCOC(=O)CCCCCCCN(CCCCCCCC(=O)OC(CCCCCCCC)CCCCCCCC)CCCCNc1c(NC)c(=O)c1=O` [Compound I-351] here?
**A.** exhibited immune cell delivery potentiating ability in T cells

**Q.** For `CCCCCCCCCCCOC(=O)CCCCCN(CCCCCCCC(=O)OC(CCCCCCCC)CCCCCCCC)CCCNc1c(NC)c(=O)c1=O` [Compound I-317], which “immune cell delivery potentiating ability in T cells, amino lipid panel” value is on record?
**A.** exhibited immune cell delivery potentiating ability in T cells

**Q.** How did the “immune cell delivery potentiating ability in T cells, amino lipid panel” value turn out when `CCCCCCCCCOC(=O)CCCCCCCN(CCCCCCCC(=O)OC(CCCCCCCC)CCCCCCCC)CCCNc1c(NCC)c(=O)c1=O` [Compound I-292] was run?
**A.** exhibited immune cell delivery potentiating ability in T cells

**Q.** How did the “immune cell delivery potentiating ability in T cells, amino lipid panel” value turn out when `CCCCCCCCCC(=O)OCCCCCCCN(CCCCCCCC(=O)OC(CCCCCCCC)CCCCCCCC)CCCNc1c(NC)c(=O)c1=O` [Compound I-309] was run?
**A.** exhibited immune cell delivery potentiating ability in T cells

**Q.** Which “immune cell delivery potentiating ability in T cells, amino lipid panel” value does the source give for `CCCCCCCCC(C)OC(=O)CCCCCCCN(CCO)CCCCCCCC(=O)OC(CCCCCCCC)CCCCCCCC` (stereo not drawn) [Compound I-48] here?
**A.** exhibited immune cell delivery potentiating ability in T cells

**Q.** `CCCCCCCCC(CC)OC(=O)CCCCCCCN(CCCCCCCC(=O)OC(CCCCCCCC)CCCCCCCC)CCCCNc1c(NC)c(=O)c1=O` (stereo not drawn) [Compound I-352] was tested. Which “immune cell delivery potentiating ability in T cells, amino lipid panel” value did it give?
**A.** exhibited immune cell delivery potentiating ability in T cells

**Q.** Which “immune cell delivery potentiating ability in T cells, amino lipid panel” value does the source give for `CCCCCCCCC(CCC)OC(=O)CCCCCCCN(CCCCCCCC(=O)OC(CCCCCCCC)CCCCCCCC)CCCNc1c(NC)c(=O)c1=O` (stereo not drawn) [Compound I-348] here?
**A.** exhibited immune cell delivery potentiating ability in T cells

**Q.** `CCCCCCCCC(C)OC(=O)CCCCCCCN(CCCCCCCC(=O)OC(CCCCCCCC)CCCCCCCC)CCCNc1c(NC)c(=O)c1=O` (stereo not drawn) [Compound I-347] was tested. Which “immune cell delivery potentiating ability in T cells, amino lipid panel” value did it give?
**A.** exhibited immune cell delivery potentiating ability in T cells

**Q.** Which “immune cell delivery potentiating ability in T cells, amino lipid panel” value does the source give for `CCCCCCCCC(C)OC(=O)CCCCCN(CCCCCCCC(=O)OC(CCCCCCCC)CCCCCCCC)CCCNc1c(NC)c(=O)c1=O` (stereo not drawn) [Compound I-349] here?
**A.** exhibited immune cell delivery potentiating ability in T cells

same assay, conditions: phospholipid component, FIG. 45

**Q.** How did the “immune cell delivery potentiating ability in T cells, helper lipid panel” value turn out when `CCCCCCCCCCCCCCCC(=O)OC[C@H](COP(=O)([O-])OCC[N+](C)(C)C)OC(=O)CCCCCCCCCCCCCCC` [DPPC, 1,2-dipalmitoyl-sn-glycero-3-phosphocholine, reference compound] was run?
**A.** exhibited immune cell delivery potentiating ability in T cells

**Q.** With `CCCCCCCCCCCCCC(=O)OC[C@H](COP(=O)([O-])OCC[N+](C)(C)C)OC(=O)CCCCCCCCCCCCC` [DMPC, 1,2-dimyristoyl-sn-glycero-phosphocholine, reference compound] as the compound, how does the “immune cell delivery potentiating ability in T cells, helper lipid panel” value read?
**A.** exhibited immune cell delivery potentiating ability in T cells

same assay, conditions: structural component, FIG. 44

**Q.** How did the “immune cell delivery potentiating ability in T cells, sterol panel” value turn out when `CC(C)C(CC[C@@H](C)[C@H]1CC[C@H]2[C@@H]3CC[C@H]4C[C@@H](O)CC[C@]4(C)[C@H]3CC[C@]12C)C(C)C` [Compound 5-173] was run?
**A.** exhibited immune cell delivery potentiating ability in T cells

**Q.** How did the “immune cell delivery potentiating ability in T cells, sterol panel” value turn out when `CC[C@H](/C=C/[C@@H](C)[C@H]1CC[C@H]2[C@@H]3CC=C4C[C@@H](O)CC[C@]4(C)[C@H]3CC[C@]12C)C(C)C` [Compound S-140] was run?
**A.** exhibited immune cell delivery potentiating ability in T cells

**Q.** `CC[C@H](CC[C@@H](C)[C@H]1CC[C@H]2[C@@H]3CC[C@H]4C[C@@H](O)CC[C@]4(C)[C@H]3CC[C@]12C)C(C)C` [Compound S-144, β-sitostanol] was tested. Which “immune cell delivery potentiating ability in T cells, sterol panel” value did it give?
**A.** exhibited immune cell delivery potentiating ability in T cells

**Q.** With `CC(C)[C@@H](C)CC[C@@H](C)[C@H]1CC[C@H]2[C@@H]3CC[C@H]4C[C@@H](O)CC[C@]4(C)[C@H]3CC[C@]12C` [Compound S-151] as the compound, how does the “immune cell delivery potentiating ability in T cells, sterol panel” value read?
**A.** exhibited immune cell delivery potentiating ability in T cells

**Q.** For `CCC(/C=C/[C@@H](C)[C@H]1CC[C@H]2[C@@H]3CC=C4C[C@@H](O)CC[C@]4(C)[C@H]3CC[C@]12C)CC` [Compound 5-160], which “immune cell delivery potentiating ability in T cells, sterol panel” value is on record?
**A.** exhibited immune cell delivery potentiating ability in T cells

**Q.** How did the “immune cell delivery potentiating ability in T cells, sterol panel” value turn out when `CC(C)[C@H](C)CC[C@@H](C)[C@H]1CC[C@H]2[C@@H]3CC=C4C[C@@H](O)CC[C@]4(C)[C@H]3CC[C@]12C` [Compound S-143, campesterol] was run?
**A.** exhibited immune cell delivery potentiating ability in T cells

**Q.** Which “immune cell delivery potentiating ability in T cells, sterol panel” value does the source give for `CC(C)[C@@H](C)/C=C/[C@@H](C)[C@H]1CC[C@H]2[C@@H]3CC=C4C[C@@H](O)CC[C@]4(C)[C@H]3CC[C@]12C` [Compound S-148, brassicasterol] here?
**A.** exhibited immune cell delivery potentiating ability in T cells

**Q.** Which “immune cell delivery potentiating ability in T cells, sterol panel” value does the source give for `CC(C)C(/C=C/[C@@H](C)[C@H]1CC[C@H]2[C@@H]3CC=C4C[C@@H](O)CC[C@]4(C)[C@H]3CC[C@]12C)C(C)C` [Compound 5-167] here?
**A.** exhibited immune cell delivery potentiating ability in T cells

**Q.** How did the “immune cell delivery potentiating ability in T cells, sterol panel” value turn out when `CC(C)[C@H](C)CC[C@@H](C)[C@H]1CC[C@H]2[C@@H]3CC[C@H]4C[C@@H](O)CC[C@]4(C)[C@H]3CC[C@]12C` [Compound 5-159] was run?
**A.** exhibited immune cell delivery potentiating ability in T cells

**Q.** How did the “immune cell delivery potentiating ability in T cells, sterol panel” value turn out when `CCC(/C=C/[C@@H](C)[C@H]1CC[C@H]2[C@@H]3CC=C4C[C@@H](O)CC[C@]4(C)[C@H]3CC[C@]12C)(CC)CC` [Compound 5-166] was run?
**A.** exhibited immune cell delivery potentiating ability in T cells

same assay, conditions: third series, against Compound I-18 formulations, FIG. 47

**Q.** For `CCCCCCCCCCC(O)CN(CCCCC1NC(=O)C(CCCCN(CC(O)CCCCCCCCCC)CC(O)CCCCCCCCCC)NC1=O)CC(O)CCCCCCCCCC` (stereo not drawn) [CKK-E12, reference compound], which “immune cell delivery potentiating ability in T cells, other ionizable lipids” value is on record?
**A.** exhibited immune cell delivery potentiating ability in T cells

**Q.** Which “immune cell delivery potentiating ability in T cells, other ionizable lipids” value does the source give for `CCCCCC=CCC=CCCCCCCCCC(CCCCCCCCC=CCC=CCCCCC)OC(=O)CCCN(C)C` (stereo not drawn) [MC3, heptatriaconta-6,9,28,31-tetraen-19-yl 4-(dimethylamino)butanoate, reference compound] here?
**A.** exhibited immune cell delivery potentiating ability in T cells
